Test results: ChEMBL document CHEMBL4507293 (2021)

What was measured:
[1] = molecular target: High affinity cGMP-specific 3',5'-cyclic phosphodiesterase 9A (Homo sapiens, UniProt O76083); assay: Biochemical assay (PDE9A)
[2] = test system: Tyrosine-protein kinase ABL1 (Homo sapiens), P00519 [F317I]; conditions: Compound concentration 100.0 nM
[3] = test system: Tyrosine-protein kinase ABL1 (Homo sapiens), P00519 [Y253F]; conditions: Compound concentration 100.0 nM
[4] = molecular target: ALK tyrosine kinase receptor (Homo sapiens) (UniProt Q9UM73); conditions: Compound concentration 100.0 nM
[5] = molecular target: Serine/threonine-protein kinase BRSK2 (Homo sapiens) (UniProt Q8IWQ3); conditions: Compound concentration 100.0 nM
[6] = molecular target: Calcium/calmodulin-dependent protein kinase type 1D (Homo sapiens) (UniProt Q8IU85); conditions: Compound concentration 100.0 nM
[7] = molecular target: Casein kinase I isoform delta (Homo sapiens) (UniProt P48730); conditions: Compound concentration 100.0 nM
[8] = molecular target: Death-associated protein kinase 1 (Homo sapiens) (UniProt P53355); conditions: Compound concentration 100.0 nM
[9] = test system: Epidermal growth factor receptor (Homo sapiens), P00533 [UNDEFINED MUTATION]; conditions: Compound concentration 100.0 nM
[10] = molecular target: Mitogen-activated protein kinase 7 (Homo sapiens) (UniProt Q13164); conditions: Compound concentration 100.0 nM
[11] = molecular target: Fibroblast growth factor receptor 3 (Homo sapiens) (UniProt P22607); conditions: Compound concentration 100.0 nM
[12] = test system: Receptor-type tyrosine-protein kinase FLT3 (Homo sapiens), P36888 [UNDEFINED MUTATION]; conditions: Compound concentration 100.0 nM
[13] = test system: Receptor-type tyrosine-protein kinase FLT3 (Homo sapiens), P36888 [R834Q]; conditions: Compound concentration 100.0 nM
[14] = molecular target: Homeodomain-interacting protein kinase 4 (Homo sapiens) (UniProt Q8NE63); conditions: Compound concentration 100.0 nM
[15] = molecular target: Inhibitor of nuclear factor kappa-B kinase subunit beta (Homo sapiens) (UniProt O14920); conditions: Compound concentration 100.0 nM
[16] = molecular target: Tyrosine-protein kinase ITK/TSK (Homo sapiens) (UniProt Q08881); conditions: Compound concentration 100.0 nM
[17] = molecular target: Tyrosine-protein kinase JAK3 (Homo sapiens) (UniProt P52333); conditions: Compound concentration 100.0 nM
[18] = molecular target: Mitogen-activated protein kinase 10 (Homo sapiens) (UniProt P53779); conditions: Compound concentration 100.0 nM
[19] = molecular target: Mast/stem cell growth factor receptor Kit (Homo sapiens) (UniProt P10721); conditions: Compound concentration 100.0 nM
[20] = test system: Mast/stem cell growth factor receptor Kit (Homo sapiens), P10721 [V559D]; conditions: Compound concentration 100.0 nM
[21] = molecular target: Serine/threonine-protein kinase LATS1 (Homo sapiens) (UniProt O95835); conditions: Compound concentration 100.0 nM
[22] = molecular target: Serine/threonine-protein kinase STK11 (Homo sapiens) (UniProt Q15831); conditions: Compound concentration 100.0 nM
[23] = molecular target: Mitogen-activated protein kinase kinase kinase 3 (Homo sapiens) (UniProt Q99759); conditions: Compound concentration 100.0 nM
[24] = molecular target: Hepatocyte growth factor receptor (Homo sapiens) (UniProt P08581); conditions: Compound concentration 100.0 nM
[25] = test system: Hepatocyte growth factor receptor (Homo sapiens), P08581 [Y1235D]; conditions: Compound concentration 100.0 nM
[26] = molecular target: Serine/threonine-protein kinase MRCK alpha (Homo sapiens) (UniProt Q5VT25); conditions: Compound concentration 100.0 nM
[27] = molecular target: Serine/threonine-protein kinase MRCK beta (Homo sapiens) (UniProt Q9Y5S2); conditions: Compound concentration 100.0 nM
[28] = molecular target: Myosin-IIIa (Homo sapiens) (UniProt Q8NEV4); conditions: Compound concentration 100.0 nM
[29] = molecular target: Serine/threonine-protein kinase 38 (Homo sapiens) (UniProt Q15208); conditions: Compound concentration 100.0 nM
[30] = molecular target: Serine/threonine-protein kinase Nek5 (Homo sapiens) (UniProt Q6P3R8); conditions: Compound concentration 100.0 nM
[31] = molecular target: Serine/threonine-protein kinase Nek6 (Homo sapiens) (UniProt Q9HC98); conditions: Compound concentration 100.0 nM
[32] = molecular target: Serine/threonine-protein kinase PAK 5 (Homo sapiens) (UniProt Q9P286); conditions: Compound concentration 100.0 nM
[33] = molecular target: Phosphatidylinositol 3-kinase C2 domain-containing subunit gamma (Homo sapiens) (UniProt O75747); conditions: Compound concentration 100.0 nM
[34] = molecular target: Serine/threonine-protein kinase PLK4 (Homo sapiens) (UniProt O00444); conditions: Compound concentration 100.0 nM
[35] = molecular target: Serine/threonine-protein kinase RIO2 (Homo sapiens) (UniProt Q9BVS4); conditions: Compound concentration 100.0 nM
[36] = molecular target: Serine/threonine-protein kinase RIO3 (Homo sapiens) (UniProt O14730); conditions: Compound concentration 100.0 nM
[37] = molecular target: Ribosomal protein S6 kinase alpha-6 (Homo sapiens) (UniProt Q9UK32); conditions: Compound concentration 100.0 nM
[38] = molecular target: Serine/threonine-protein kinase SBK1 (Homo sapiens) (UniProt Q52WX2); conditions: Compound concentration 100.0 nM
[39] = molecular target: SRSF protein kinase 1 (Homo sapiens) (UniProt Q96SB4); conditions: Compound concentration 100.0 nM
[40] = molecular target: TGF-beta receptor type-1 (Homo sapiens) (UniProt P36897); conditions: Compound concentration 100.0 nM
[41] = molecular target: Angiopoietin-1 receptor (Homo sapiens) (UniProt Q02763); conditions: Compound concentration 100.0 nM
[42] = molecular target: Non-receptor tyrosine-protein kinase TNK1 (Homo sapiens) (UniProt Q13470); conditions: Compound concentration 100.0 nM
[43] = molecular target: Transient receptor potential cation channel subfamily M member 6 (Homo sapiens) (UniProt Q9BX84); conditions: Compound concentration 100.0 nM
[44] = molecular target: 5-hydroxytryptamine receptor 2B (Homo sapiens) (UniProt P41595); conditions: Compound concentration 10.0 uM
[45] = molecular target: Histamine H2 receptor (Homo sapiens) (UniProt P25021); conditions: Compound concentration 10.0 uM

Mast/stem cell growth factor receptor Kit (Homo sapiens), P10721 [V559D], sequence (P10721 whole entry V559D): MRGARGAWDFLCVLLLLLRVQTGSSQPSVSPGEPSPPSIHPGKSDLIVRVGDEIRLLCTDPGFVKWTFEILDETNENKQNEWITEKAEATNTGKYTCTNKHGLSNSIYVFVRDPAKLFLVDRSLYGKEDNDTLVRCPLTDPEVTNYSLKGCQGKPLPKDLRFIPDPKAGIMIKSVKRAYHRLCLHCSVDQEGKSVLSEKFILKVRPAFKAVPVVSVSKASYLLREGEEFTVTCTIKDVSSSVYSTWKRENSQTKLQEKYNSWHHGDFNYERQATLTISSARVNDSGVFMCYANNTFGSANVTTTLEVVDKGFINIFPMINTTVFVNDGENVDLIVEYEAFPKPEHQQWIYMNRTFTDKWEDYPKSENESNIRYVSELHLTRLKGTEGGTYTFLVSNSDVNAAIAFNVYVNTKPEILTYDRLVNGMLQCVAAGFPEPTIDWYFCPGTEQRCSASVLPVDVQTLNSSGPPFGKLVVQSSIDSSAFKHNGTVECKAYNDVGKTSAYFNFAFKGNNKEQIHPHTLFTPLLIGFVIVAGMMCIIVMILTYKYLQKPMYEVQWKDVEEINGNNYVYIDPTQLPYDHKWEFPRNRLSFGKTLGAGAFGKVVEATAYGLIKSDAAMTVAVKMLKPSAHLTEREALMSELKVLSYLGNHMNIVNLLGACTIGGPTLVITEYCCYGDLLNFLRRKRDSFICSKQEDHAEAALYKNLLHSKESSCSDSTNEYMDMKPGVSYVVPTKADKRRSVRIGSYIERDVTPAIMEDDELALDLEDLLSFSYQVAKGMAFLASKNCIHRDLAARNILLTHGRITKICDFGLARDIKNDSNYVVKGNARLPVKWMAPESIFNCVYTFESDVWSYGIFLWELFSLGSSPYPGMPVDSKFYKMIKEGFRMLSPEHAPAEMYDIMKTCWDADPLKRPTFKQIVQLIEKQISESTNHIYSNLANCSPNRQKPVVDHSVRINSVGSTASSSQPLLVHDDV
Death-associated protein kinase 1 (Homo sapiens), sequence (P53355 whole entry, looked up): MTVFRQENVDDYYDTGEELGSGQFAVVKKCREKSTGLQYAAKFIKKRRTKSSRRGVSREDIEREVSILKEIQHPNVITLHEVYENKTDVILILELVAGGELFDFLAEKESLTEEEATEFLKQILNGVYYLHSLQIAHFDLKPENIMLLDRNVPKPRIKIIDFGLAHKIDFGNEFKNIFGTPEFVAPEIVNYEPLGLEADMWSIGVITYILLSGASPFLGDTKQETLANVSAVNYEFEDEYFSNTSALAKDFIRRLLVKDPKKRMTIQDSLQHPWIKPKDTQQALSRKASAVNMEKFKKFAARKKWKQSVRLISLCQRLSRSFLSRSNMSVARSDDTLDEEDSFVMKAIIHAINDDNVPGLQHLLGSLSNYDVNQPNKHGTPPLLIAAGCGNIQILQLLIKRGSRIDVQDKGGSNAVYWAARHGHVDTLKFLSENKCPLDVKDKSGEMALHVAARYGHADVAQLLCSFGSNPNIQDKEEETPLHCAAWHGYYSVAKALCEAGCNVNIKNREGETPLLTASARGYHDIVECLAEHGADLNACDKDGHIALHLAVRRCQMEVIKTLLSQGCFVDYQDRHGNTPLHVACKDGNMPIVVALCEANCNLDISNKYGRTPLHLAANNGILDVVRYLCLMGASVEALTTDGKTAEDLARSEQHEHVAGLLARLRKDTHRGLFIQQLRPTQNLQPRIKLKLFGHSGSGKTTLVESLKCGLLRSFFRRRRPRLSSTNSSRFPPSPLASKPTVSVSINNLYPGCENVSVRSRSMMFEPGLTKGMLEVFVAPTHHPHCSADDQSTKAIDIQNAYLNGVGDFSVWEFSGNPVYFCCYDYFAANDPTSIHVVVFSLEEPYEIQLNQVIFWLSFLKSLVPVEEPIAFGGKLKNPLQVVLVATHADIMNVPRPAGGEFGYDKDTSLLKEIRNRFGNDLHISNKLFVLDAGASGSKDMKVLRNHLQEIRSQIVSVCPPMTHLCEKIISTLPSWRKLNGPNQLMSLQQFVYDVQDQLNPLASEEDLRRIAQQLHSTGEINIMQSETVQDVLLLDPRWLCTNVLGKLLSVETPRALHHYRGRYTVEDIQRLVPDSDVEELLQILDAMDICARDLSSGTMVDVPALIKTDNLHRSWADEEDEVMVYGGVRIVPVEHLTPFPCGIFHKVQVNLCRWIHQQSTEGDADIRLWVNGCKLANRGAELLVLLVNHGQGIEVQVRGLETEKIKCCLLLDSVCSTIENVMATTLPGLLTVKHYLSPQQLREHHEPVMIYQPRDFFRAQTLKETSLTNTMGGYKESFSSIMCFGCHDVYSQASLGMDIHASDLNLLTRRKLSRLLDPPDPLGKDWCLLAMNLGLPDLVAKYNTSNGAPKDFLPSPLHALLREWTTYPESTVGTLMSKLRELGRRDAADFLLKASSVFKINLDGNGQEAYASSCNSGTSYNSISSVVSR
Serine/threonine-protein kinase STK11 (Homo sapiens), sequence (Q15831 whole entry): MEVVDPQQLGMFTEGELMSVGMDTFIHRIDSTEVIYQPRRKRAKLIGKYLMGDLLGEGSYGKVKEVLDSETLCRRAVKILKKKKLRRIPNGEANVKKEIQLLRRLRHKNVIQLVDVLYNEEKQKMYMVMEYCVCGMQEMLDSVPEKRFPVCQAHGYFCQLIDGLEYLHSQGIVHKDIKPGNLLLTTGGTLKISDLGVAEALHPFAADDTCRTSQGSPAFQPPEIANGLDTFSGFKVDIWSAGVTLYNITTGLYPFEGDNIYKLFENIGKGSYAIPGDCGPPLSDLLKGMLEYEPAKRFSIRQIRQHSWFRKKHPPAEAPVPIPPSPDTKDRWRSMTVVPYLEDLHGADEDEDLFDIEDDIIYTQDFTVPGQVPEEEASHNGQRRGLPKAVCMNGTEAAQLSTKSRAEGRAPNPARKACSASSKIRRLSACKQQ
Tyrosine-protein kinase ITK/TSK (Homo sapiens), sequence (Q08881 whole entry): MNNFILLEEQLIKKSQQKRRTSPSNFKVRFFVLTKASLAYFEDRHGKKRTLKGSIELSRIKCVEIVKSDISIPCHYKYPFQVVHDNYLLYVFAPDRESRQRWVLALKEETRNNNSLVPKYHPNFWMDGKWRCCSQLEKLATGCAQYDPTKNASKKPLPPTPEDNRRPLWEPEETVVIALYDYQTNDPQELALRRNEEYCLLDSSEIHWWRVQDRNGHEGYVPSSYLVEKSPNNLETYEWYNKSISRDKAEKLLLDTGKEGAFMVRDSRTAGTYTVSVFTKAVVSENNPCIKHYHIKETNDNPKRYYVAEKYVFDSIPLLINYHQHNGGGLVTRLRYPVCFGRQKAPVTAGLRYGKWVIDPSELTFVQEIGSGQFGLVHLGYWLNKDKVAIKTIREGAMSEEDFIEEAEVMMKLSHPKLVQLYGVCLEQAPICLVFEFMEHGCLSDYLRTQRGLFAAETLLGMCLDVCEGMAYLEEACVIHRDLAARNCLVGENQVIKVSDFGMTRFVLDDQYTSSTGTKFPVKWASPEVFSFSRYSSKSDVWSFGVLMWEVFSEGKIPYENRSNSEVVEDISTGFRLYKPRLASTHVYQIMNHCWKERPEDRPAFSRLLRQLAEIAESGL
Homeodomain-interacting protein kinase 4 (Homo sapiens), sequence (Q8NE63 whole entry): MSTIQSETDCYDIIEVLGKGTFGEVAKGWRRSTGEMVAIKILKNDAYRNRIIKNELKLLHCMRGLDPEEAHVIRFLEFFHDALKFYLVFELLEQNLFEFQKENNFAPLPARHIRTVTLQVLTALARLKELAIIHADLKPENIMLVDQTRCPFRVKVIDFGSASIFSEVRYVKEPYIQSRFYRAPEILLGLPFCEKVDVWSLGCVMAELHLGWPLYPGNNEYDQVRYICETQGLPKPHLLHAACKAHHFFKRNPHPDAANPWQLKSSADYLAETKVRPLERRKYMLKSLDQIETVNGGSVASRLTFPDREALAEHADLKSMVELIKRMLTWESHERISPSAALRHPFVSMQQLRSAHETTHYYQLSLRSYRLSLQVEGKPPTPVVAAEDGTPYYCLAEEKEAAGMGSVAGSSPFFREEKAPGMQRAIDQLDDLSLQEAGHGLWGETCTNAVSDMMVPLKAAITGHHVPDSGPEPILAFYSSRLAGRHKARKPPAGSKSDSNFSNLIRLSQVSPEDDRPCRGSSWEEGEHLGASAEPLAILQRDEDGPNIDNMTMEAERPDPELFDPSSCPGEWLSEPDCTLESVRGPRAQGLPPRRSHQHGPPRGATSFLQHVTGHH
Non-receptor tyrosine-protein kinase TNK1 (Homo sapiens), sequence (Q13470 whole entry): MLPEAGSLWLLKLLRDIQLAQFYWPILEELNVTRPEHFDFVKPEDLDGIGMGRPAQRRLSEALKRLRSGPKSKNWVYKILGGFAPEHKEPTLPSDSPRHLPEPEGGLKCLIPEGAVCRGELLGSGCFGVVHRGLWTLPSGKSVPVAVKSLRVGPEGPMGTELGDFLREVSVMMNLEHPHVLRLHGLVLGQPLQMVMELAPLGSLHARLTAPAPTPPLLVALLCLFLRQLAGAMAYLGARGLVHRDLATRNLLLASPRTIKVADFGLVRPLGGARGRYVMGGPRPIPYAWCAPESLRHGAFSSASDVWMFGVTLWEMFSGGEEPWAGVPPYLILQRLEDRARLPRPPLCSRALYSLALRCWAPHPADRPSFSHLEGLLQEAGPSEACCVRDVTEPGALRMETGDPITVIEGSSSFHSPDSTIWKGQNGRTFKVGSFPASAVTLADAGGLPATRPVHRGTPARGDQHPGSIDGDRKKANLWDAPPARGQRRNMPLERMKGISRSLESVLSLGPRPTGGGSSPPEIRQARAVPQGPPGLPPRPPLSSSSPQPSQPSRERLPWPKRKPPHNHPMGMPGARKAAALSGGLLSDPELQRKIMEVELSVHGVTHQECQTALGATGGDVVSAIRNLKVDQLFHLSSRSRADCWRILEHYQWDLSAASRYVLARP
Serine/threonine-protein kinase Nek6 (Homo sapiens), sequence (Q9HC98 whole entry): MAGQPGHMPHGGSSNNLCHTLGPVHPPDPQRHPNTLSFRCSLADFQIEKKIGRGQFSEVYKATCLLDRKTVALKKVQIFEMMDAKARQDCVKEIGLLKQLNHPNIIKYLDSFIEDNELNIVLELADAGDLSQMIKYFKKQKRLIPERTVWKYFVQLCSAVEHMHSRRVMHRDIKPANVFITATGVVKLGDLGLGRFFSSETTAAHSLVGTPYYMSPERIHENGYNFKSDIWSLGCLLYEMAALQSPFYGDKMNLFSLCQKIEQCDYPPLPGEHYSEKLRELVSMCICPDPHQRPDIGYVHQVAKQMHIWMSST

CC(C)CC(=O)N1CCc2nc(-c3ccc(Br)cc3)nc(N(C)Cc3ccccc3)c2C1 [THPP-1-NC]
inactive: residual activity [2] 100% | residual activity [3] 97% | residual activity [4] 91% | residual activity [5] 94% | residual activity [6] 100% | residual activity [7] 83% | residual activity [8] 100% | residual activity [9] 100% | residual activity [10] 100% | residual activity [11] 100% | residual activity [12] 99% | residual activity [13] 65% | residual activity [14] 61% | residual activity [15] 100% | residual activity [16] 100% | residual activity [17] 98% | residual activity [18] 78% | residual activity [19] 100% | residual activity [20] 100% | residual activity [21] 67% | residual activity [22] 100% | residual activity [23] 77% | residual activity [24] 99% | residual activity [25] 100% | residual activity [26] 100% | residual activity [27] 99% | residual activity [28] 96% | residual activity [29] 100% | residual activity [30] 100% | residual activity [31] 100% | residual activity [32] 100% | residual activity [33] 100% | residual activity [34] 70% | residual activity [35] 100% | residual activity [36] 100% | residual activity [37] 100% | residual activity [38] 100% | residual activity [39] 99% | residual activity [40] 100% | residual activity [41] 100% | residual activity [42] 100% | residual activity [43] 100% | inhibition [44] 7.85% | inhibition [45] 3.39%
> 54.6 µM (not active): Ki [1]

COCCOc1nc(-c2ccc(Cl)nc2)nc2c1CN(C(=O)c1ncn3ccccc13)CC2 [THPP-1]
inactive: residual activity [2] 100% | residual activity [3] 93% | residual activity [4] 91% | residual activity [5] 93% | residual activity [6] 100% | residual activity [7] 84% | residual activity [8] 100% | residual activity [9] 85% | residual activity [10] 100% | residual activity [11] 100% | residual activity [12] 96% | residual activity [13] 65% | residual activity [14] 83% | residual activity [15] 100% | residual activity [16] 100% | residual activity [17] 93% | residual activity [18] 91% | residual activity [19] 100% | residual activity [20] 100% | residual activity [21] 70% | residual activity [22] 100% | residual activity [23] 96% | residual activity [24] 100% | residual activity [25] 100% | residual activity [26] 100% | residual activity [27] 100% | residual activity [28] 100% | residual activity [29] 100% | residual activity [30] 100% | residual activity [31] 100% | residual activity [32] 100% | residual activity [33] 100% | residual activity [34] 85% | residual activity [35] 100% | residual activity [36] 100% | residual activity [37] 100% | residual activity [38] 100% | residual activity [39] 86% | residual activity [40] 100% | residual activity [41] 100% | residual activity [42] 100% | residual activity [43] 100% | inhibition [44] 3.25% | inhibition [45] -0.24%
> 50 µM (not active): Ki [1]
